In ChEMBL document CHEMBL1128075, “Chemical modification and structure-activity relationships of pyripyropenes; potent, bioavailable inhibitor of acyl-CoA: Cholesterol O-acyltransferase (ACAT)” (Bioorg Med Chem Lett, 1995):

test system: Cricetinae gen. sp.; assay: Effective dose for inhibition of [3H]- cholesterol absorption in a hamster model.; type: functional, Cricetulus griseus

Row | SMILES | ED50 [mg/kg]
1 | CC(=O)O[C@H]1CC[C@@]2(C)C(C[C@H](OC(C)=O)[C@@]3(C)Oc4cc(-c5cccnc5)oc(=O)c4[C@H](O)C23)C1(C)COS(C)(=O)=O (single isomer, unassigned) | 10

molecular target: T1, Sterol O-acyltransferase 2 (Rattus norvegicus, UniProt Q7TQM4); assay: Inhibitory activity against acyl-CoA:cholesterol O-acyltransferase (ACAT)
T1 sequence (Q7TQM4 whole entry): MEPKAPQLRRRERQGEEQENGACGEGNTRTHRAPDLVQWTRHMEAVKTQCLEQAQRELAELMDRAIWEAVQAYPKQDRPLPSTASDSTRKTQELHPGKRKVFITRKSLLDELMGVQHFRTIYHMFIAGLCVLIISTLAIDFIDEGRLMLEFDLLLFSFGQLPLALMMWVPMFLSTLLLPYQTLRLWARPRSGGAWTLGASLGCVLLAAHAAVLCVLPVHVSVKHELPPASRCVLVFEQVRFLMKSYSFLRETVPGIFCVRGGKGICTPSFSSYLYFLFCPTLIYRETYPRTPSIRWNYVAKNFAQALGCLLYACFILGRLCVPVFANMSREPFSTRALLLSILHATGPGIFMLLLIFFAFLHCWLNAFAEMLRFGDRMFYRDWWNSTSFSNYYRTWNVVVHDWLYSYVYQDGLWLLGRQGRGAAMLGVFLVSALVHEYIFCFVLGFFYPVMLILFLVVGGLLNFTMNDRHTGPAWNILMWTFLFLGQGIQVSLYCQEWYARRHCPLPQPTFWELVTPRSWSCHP

Row | IC50 [nM] | SMILES
2 | 16000 | CCCC(N)C(=O)O[C@H]1c2c(cc(-c3cccnc3)oc2=O)O[C@@]2(C)C1[C@@]1(C)CC[C@H](OC(C)=O)[C@@](C)(COC(C)=O)C1C[C@@H]2OC(C)=O (stereo partly specified)
3 | 620 | CCCC(N)C(=O)O[C@H]1CC[C@@]2(C)C(C[C@H](OC(C)=O)[C@@]3(C)Oc4cc(-c5cccnc5)oc(=O)c4[C@H](O)C23)[C@]1(C)COC(C)=O (stereo partly specified)
4 | 2500 | CCCC(N)C(=O)O[C@H]1CC2[C@](C)(CC[C@@H]3OC(=O)OC[C@@]23C)C2[C@@H](O)c3c(cc(-c4cccnc4)oc3=O)O[C@@]21C (stereo partly specified)
5 | 2400 | CCCCO[C@H]1c2c(cc(-c3cccnc3)oc2=O)O[C@@]2(C)C1[C@@]1(C)CC[C@H](OC(C)=O)[C@@](C)(COC(C)=O)C1C[C@@H]2OC(C)=O (stereo partly specified)
6 | 79000 | CCCC(N)C(=O)O[C@H]1CC2[C@](C)(CC[C@H](O)[C@@]2(C)CO)C2[C@@H](O)c3c(cc(-c4cccnc4)oc3=O)O[C@@]21C (stereo partly specified)
7 | 5900 | CC(=O)O[C@H]1CC[C@@]2(C)C(C[C@H](OC(C)=O)[C@@]3(C)Oc4cc(-c5cccnc5)oc(=O)c4[C@H](O)C23)[C@]1(C)COCC(C)C (stereo partly specified)
8 | 39 | CCCC(N)C(=O)O[C@H]1CC2[C@](C)(CC[C@@H]3OC4(CCCCC4)OC[C@@]23C)C2[C@@H](O)c3c(cc(-c4cccnc4)oc3=O)O[C@@]21C (stereo partly specified)
9 | 23000 | CCCO[C@H]1c2c(cc(-c3cccnc3)oc2=O)O[C@@]2(C)C1[C@@]1(C)CC[C@H](OC(C)=O)[C@@](C)(COC(C)=O)C1C[C@@H]2OC(C)=O (stereo partly specified)
10 | 4200 | CCCCOC[C@@]1(C)C2C[C@H](OC(C)=O)[C@@]3(C)Oc4cc(-c5cccnc5)oc(=O)c4[C@H](O)C3[C@@]2(C)CC[C@@H]1OC(C)=O (stereo partly specified)
11 | 6 | CCCC(N)C(=O)O[C@H]1CC2[C@](C)(CC[C@@H]3OC(c4ccccc4)OC[C@@]23C)C2[C@@H](O)c3c(cc(-c4cccnc4)oc3=O)O[C@@]21C (stereo partly specified)
12 | > 8000 | CCCC(N)C(=O)OC[C@@]1(C)C2C[C@H](OC(C)=O)[C@@]3(C)Oc4cc(-c5cccnc5)oc(=O)c4[C@H](O)C3[C@@]2(C)CC[C@@H]1OC(C)=O (stereo partly specified)
13 | 910 | CCCC(N)C(=O)O[C@H]1CC2[C@](C)(CC[C@@H]3OC(C)(c4ccccc4)OC[C@@]23C)C2[C@@H](O)c3c(cc(-c4cccnc4)oc3=O)O[C@@]21C (stereo partly specified)
14 | 33 | CCCC(N)C(=O)O[C@H]1CC2[C@](C)(CC[C@@H]3OC(CC)OC[C@@]23C)C2[C@@H](O)c3c(cc(-c4cccnc4)oc3=O)O[C@@]21C (stereo partly specified)
15 | 5800 | CC(=O)OC[C@@]1(C)C2C[C@H](OC(C)=O)[C@@]3(C)Oc4cc(-c5cccnc5)oc(=O)c4C=C3[C@@]2(C)CC[C@@H]1OC(C)=O (stereo partly specified)
16 | 86 | CCCC(N)C(=O)O[C@H]1CC2[C@](C)(CC[C@@H]3OC(C)(C)OC[C@@]23C)C2[C@@H](O)c3c(cc(-c4cccnc4)oc3=O)O[C@@]21C (stereo partly specified)
17 | 5800 | CC(=O)OC[C@@]1(C)C2C[C@H](OC(C)=O)[C@@]3(C)Oc4cc(-c5ccc[n+]([O-])c5)oc(=O)c4[C@H](O)C3[C@@]2(C)CC[C@@H]1OC(C)=O (stereo partly specified)
18 | 140 | CCCO[C@H]1CC[C@@]2(C)C(C[C@H](OC(C)=O)[C@@]3(C)Oc4cc(-c5cccnc5)oc(=O)c4[C@H](O)C23)[C@]1(C)COC(C)=O (stereo partly specified)
19 | 38 | CCCCO[C@H]1CC2[C@](C)(CC[C@H](OC(C)=O)[C@@]2(C)COC(C)=O)C2[C@@H](O)c3c(cc(-c4cccnc4)oc3=O)O[C@@]21C (stereo partly specified)
20 | 67 | CCCO[C@H]1CC2[C@](C)(CC[C@H](OC(C)=O)[C@@]2(C)COC(C)=O)C2[C@@H](O)c3c(cc(-c4cccnc4)oc3=O)O[C@@]21C (stereo partly specified)

Row | IC50 [nM] | SMILES
21 | 25 | CCCC(N)C(=O)O[C@H]1CC2[C@](C)(CC[C@@H]3OC(C)OC[C@@]23C)C2[C@@H](O)c3c(cc(-c4cccnc4)oc3=O)O[C@@]21C (stereo partly specified)
22 | 270 | CCCOC[C@@]1(C)C2C[C@H](OC(C)=O)[C@@]3(C)Oc4cc(-c5cccnc5)oc(=O)c4[C@H](O)C3[C@@]2(C)CC[C@@H]1OC(C)=O (stereo partly specified)
23 | 200 | CCCCO[C@H]1CC[C@@]2(C)C(C[C@H](OC(C)=O)[C@@]3(C)Oc4cc(-c5cccnc5)oc(=O)c4[C@H](O)C23)[C@]1(C)COC(C)=O (stereo partly specified)
24 | 13 | CCCC(N)C(=O)O[C@H]1CC2[C@](C)(CC[C@H](OC(C)=O)[C@@]2(C)COC(C)=O)C2[C@@H](O)c3c(cc(-c4cccnc4)oc3=O)O[C@@]21C (stereo partly specified)
25 | 7400 | CC(=O)OCC1(C)C2C[C@H](OCc3ccccc3)[C@@]3(C)Oc4cc(-c5cccnc5)oc(=O)c4[C@H](O)C3[C@@]2(C)CC[C@@H]1OC(C)=O (single isomer, unassigned)
26 | 1200 | CC(=O)O[C@H]1CC2C3(C)COC(C)(C)O[C@H]3CC[C@]2(C)C2[C@@H](O)c3c(cc(-c4cccnc4)oc3=O)O[C@@]21C (single isomer, unassigned)
27 | 19 | CC(=O)O[C@H]1CC[C@@]2(C)C(C[C@H](OC(C)=O)[C@@]3(C)Oc4cc(-c5cccnc5)oc(=O)c4[C@H](O)C23)C1(C)COS(C)(=O)=O (single isomer, unassigned)
28 | 110000 | CC(=O)O[C@H]1CC[C@@]2(C)C(C[C@H](OC(C)=O)[C@@]3(C)Oc4cc(-c5cccnc5)oc(=O)c4[C@H](O)C23)C1(C)COS(=O)(=O)c1ccccc1 (single isomer, unassigned)
29 | 38000 | CO[C@H]1c2c(cc(-c3cccnc3)oc2=O)O[C@@]2(C)C1[C@@]1(C)CC[C@H](OC(C)=O)C(C)(COC(C)=O)C1C[C@@H]2OC(C)=O (single isomer, unassigned)
30 | 120 | CC(=O)O[C@H]1CC2C3(C)COC(c4ccccc4)O[C@H]3CC[C@]2(C)C2[C@@H](O)c3c(cc(-c4cccnc4)oc3=O)O[C@@]21C (single isomer, unassigned)
31 | > 180000 | CC12COC(c3ccccc3)O[C@H]1CC[C@@]1(C)C2C[C@H](O)[C@@]2(C)Oc3cc(-c4cccnc4)oc(=O)c3[C@H](O)C12 (single isomer, unassigned)
32 | > 220000 | CC1(CO)C2C[C@H](O)[C@@]3(C)Oc4cc(-c5cccnc5)oc(=O)c4[C@H](O)C3[C@@]2(C)CC[C@@H]1O (single isomer, unassigned)
33 | 2100 | CC(=O)OCC1(C)C2C[C@H](OC(C)=O)[C@@]3(C)Oc4cc(-c5ccc[n+](C)c5)oc(=O)c4[C@H](O)C3[C@@]2(C)CC[C@@H]1OC(C)=O (single isomer, unassigned)
34 | 2100 | CC(=O)OCC1(C)C2C[C@H](OC(C)=O)[C@@]3(C)Oc4cc(-c5cccnc5)oc(=O)c4C(=O)C3[C@@]2(C)CC[C@@H]1OC(C)=O (single isomer, unassigned)
35 | 100000 | CC(=O)O[C@H]1CC2C(C)(CO)[C@@H](O)CC[C@]2(C)C2[C@@H](O)c3c(cc(-c4cccnc4)oc3=O)O[C@@]21C (single isomer, unassigned)
36 | 1800 | CC(=O)OCC1(C)C2C[C@H](OS(C)(=O)=O)[C@@]3(C)Oc4cc(-c5cccnc5)oc(=O)c4[C@H](O)C3[C@@]2(C)CC[C@@H]1OC(C)=O (single isomer, unassigned)
37 | 5100 | CC(=O)OCC1(C)C2C[C@H](OC(C)=O)[C@@]3(C)Oc4cc(-c5cccnc5)oc(=O)c4[C@H](OC(C)=O)C3[C@@]2(C)CC[C@@H]1OC(C)=O (single isomer, unassigned)
38 | 3100 | CC(=O)OCC1(C)C2C[C@H](OS(=O)(=O)c3ccccc3)[C@@]3(C)Oc4cc(-c5cccnc5)oc(=O)c4[C@H](O)C3[C@@]2(C)CC[C@@H]1OC(C)=O (single isomer, unassigned)

Row | SMILES | IC50 [nM]
39 | CC(=O)OC[C@@]1(C)C2C[C@H](OCC(C)C)[C@@]3(C)Oc4cc(-c5cccnc5)oc(=O)c4[C@H](O)C3[C@@]2(C)CC[C@@H]1OC(C)=O (stereo partly specified) | 130
40 | CC(=O)OC[C@@]1(C)C2C[C@H](OC(C)=O)[C@@]3(C)Oc4cc(-c5cccnc5)oc(=O)c4[C@H](O)C3[C@@]2(C)CC[C@@H]1OCC(C)C (stereo partly specified) | 130
41 | CC1(C)OCC2(C)C3C[C@H](O)[C@@]4(C)Oc5cc(-c6cccnc6)oc(=O)c5[C@H](O)C4[C@@]3(C)CC[C@@H]2O1 (single isomer, unassigned) | > 200000
